The values that follow come from patent publication US20250084065A1, “INHIBITING MONOACYLGLYCEROL LIPASE (MAGL)” (Psy Therapeutics, Inc., priority 2021, published 2025).

Like-named read-outs stand apart in the source and are kept apart here.

The target in one series is T1, MAGL enzyme (Homo sapiens, UniProt Q99685).
T1 sequence (Q99685 1-303): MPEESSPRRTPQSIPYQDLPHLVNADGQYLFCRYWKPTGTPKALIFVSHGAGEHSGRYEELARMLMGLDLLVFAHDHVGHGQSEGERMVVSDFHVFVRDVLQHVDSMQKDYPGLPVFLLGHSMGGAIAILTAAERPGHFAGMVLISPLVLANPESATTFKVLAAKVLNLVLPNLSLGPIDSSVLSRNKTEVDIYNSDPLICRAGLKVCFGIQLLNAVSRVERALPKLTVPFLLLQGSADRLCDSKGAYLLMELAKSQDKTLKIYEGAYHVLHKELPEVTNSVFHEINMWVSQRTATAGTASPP
Nature of the series: MAGL reversible inhibition assay (return of activity after washout). Particulars: for A: degree to which MAGL enzymatic activity returned following washout: pre-washout compound concentration 1 μM, relative to control without inhibitor. It counts as biochemical. Here is the method: Example 24: Measuring Reversible MAUL Inhibition (IC50)
The reversible mechanism of MAGL inhibition of a test compound of Formula (I) can be determined. Flag-tagged MAGL enzyme will be immobilized on anti-Flag beads. […] Colorimetric substrate (4-NPA) will be added and the reaction monitored on a plate reader for 30 minutes to verify complete inhibition. Immobilized enzyme will then be washed thoroughly to remove the inhibitor, and fresh substrate will be added. The reaction will be monitored for an additional 30 minutes; returning enzymatic activity will indicate reversibility of inhibition.
Determining MAGL Reversible Inhibition:
MAGL enzyme was incubated for 30 minutes in the presence of 40× the IC50 concentration of inhibitor. […] Substrate was added and the reaction was monitored for 30 minutes.

Series [1] can be described thus: Pharmacokinetic study of compounds in mice (brain exposure). Type of series: in vivo, male C57BL/6 mice. To be noted: male, C57BL/6, mouse, oral, 5 mg/kg, Protocols B-E. Here is the method:
Example 25: Pharmacokinetic Study of Compounds in Mice
Healthy male C57BL/6 mice (8-12 weeks old) weighing between 17 to 35 g were procured from Global, India. Temperature and humidity were maintained at 22±3° C. and 30-70%, respectively and illumination was controlled to give a sequence of 12 hr light and 12 hr dark cycle. Temperature and humidity were recorded by auto-controlled data logger system. All the animals were provided laboratory rodent diet. Reverse osmosis water treated with ultraviolet light was provided ad libitum.
Protocol A: Twenty-four male mice were divided into two groups as; Group 1: 30 mg/kg/IP; Plasma and brain; Number of animals=12; Animal #1-12. Group 2: 30 mg/kg/PO; Plasma and brain; Number of animals=12; Animal #13-24. Animals in Group 1 were administered intraperitoneally with solution formulation of PSY-05-00074-001 in 5% NMP, 5% Solutol HS-15 and 90% normal saline at […] dose. Animals in Group 2 were administered orally with solution formulation of PSY-05-00074-001 in 5% NMP, 5% Solutol HS-15 and 90% normal saline at 30 mg/kg dose. Blood samples (approximately 60 μL) were collected under light isoflurane anesthesia from retro orbital plexus at 0.25, 0.5, 1, 2, 4 and 8 hr (IP and PO). Plasma samples were separated by centrifugation of whole blood and stored below −70° C. until bioanalysis. Immediately after collection of blood from intraperitoneal and oral group animals, animals were euthanized with excess CO2 and brain samples were collected from set of two mice at each time point. Brain samples were divided into two parts. Half brain samples were homogenized using ice-cold phosphate buffer saline (pH-7.4) and homogenates were stored below −70±10° C. until analysis. Total homogenate volume was three times the brain weight. Other part of brain was stored below −70±10° C. for further analysis. All samples were processed for analysis by protein precipitation using acetonitrile and analyzed with fit-for-purpose LC/MS/MS method (LLOQ-2.02 ng/mL for plasma and 6.06 ng/g for brain). Pharmacokinetic parameters were calculated using the non-compartmental analysis tool of Phoenix WinNonlin®.
Protocol B: Thirty six mice were included into the study and divided in to three groups as Group 1 (n=12), Group 2 (n=12) and Group 3 (n=12) with n=2 mice per time-point design. Animals in Group 1 were administered intravenously with solution formulation of PSY-05-00414-001 at 5 mg/kg dose. Animals in Group 2 were administered orally with solution formulation of PSY-05-00414-001 at a dose of 5 mg/kg. Animals in Group 3 were administered intraperitoneally with solution formulation of PSY-05-00414-001 at 5 mg/kg dose. The formulation vehicle for all the three groups was 5% NMP, 5% Solutol HS-15 and 90% normal saline. Blood samples (approximately 60 μL) were collected under light isoflurane anesthesia from two mice at 0.25, 0.5, 1, 2, 4 and 8 h. Plasma was harvested by centrifugation of blood and stored at −70±10° C. until analysis. After blood collection, brain was perfused and isolated at 0.25, 0.5, 1, 2, 4 and 8 h. Brain samples were dipped thrice in ice-cold phosphate buffer saline, blotted dry and cut in to two equal portion. Half-brain samples from each time-point were weighed and homogenized using ice-cold phosphate buffer saline with twice volume of brain weight making the total homogenate three volumes and stored below −70±10′° C. until analysis. Remaining half-portions of brain samples was snap freeze and kept in −70±10° C. until further confirmation from client. Plasma and brain samples were quantified by fit-for-purpose LC-MS/MS method (LLOQ: 1.01 ng/mL for plasma and 2.02 ng/mL for brain).
Protocol C: Fifty four male mice were included in study and divided in to three groups as Group 1 (n=18), Group 2 (n=18) and Group 3 (n=18) with 3 mice/time point design. […]

For a further series, the target named is T2, human MAGL (Homo sapiens, UniProt Q99685).
T2 construct: recombinant MAGL enzyme (aa 2-303 RBC, internal preparation)
T2 sequence (Q99685 2-303): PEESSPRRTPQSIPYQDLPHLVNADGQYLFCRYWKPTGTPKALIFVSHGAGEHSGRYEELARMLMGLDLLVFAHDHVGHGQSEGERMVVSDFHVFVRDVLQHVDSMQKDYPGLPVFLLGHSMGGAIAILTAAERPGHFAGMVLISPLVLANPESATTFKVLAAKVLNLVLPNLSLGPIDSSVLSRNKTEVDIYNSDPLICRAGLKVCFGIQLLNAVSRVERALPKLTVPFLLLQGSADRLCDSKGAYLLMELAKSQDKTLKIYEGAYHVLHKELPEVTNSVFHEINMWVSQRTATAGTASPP
Nature of the series: MAGL inhibition potency assay with 4-nitrophenyl acetate (4NPA) substrate, absorbance 405 nm. Particulars: read-out: MAGL Potency (Detection Method). It counts as biochemical.

In general, AUC(0-t) refers to the area under the concentration-time curve up to a stated or last time point. One may read the Cmax as the maximum level reached in the sampled fluid or tissue. With `O=C(c1cc(O)ccc1F)N1CC2(CC(n3cc(C(F)(F)F)c(-c4ccccc4F)n3)C2)C1` (single isomer, unassigned) [Compound 473, (2-fluoro-5-hydroxyphenyl)(6-(3-(2-fluorophenyl)-4-(trifluoromethyl) 1H-pyrazol-1-yl)-2-azaspiro[3.3]heptan-2-yl)methanone], the A: degree to which MAGL enzymatic activity returned following washout at MAGL enzyme worked out at 41%. For the same compound, in series [1], the AUC(0-t) was 464 ng·h/mL and the highest level (Cmax) was 172 ng/g.
Take `Cc1cn(C2CC3(C2)CN(C(=O)c2cc(O)ccc2F)C3)nc1-c1cc(F)ccc1Cl` [Compound 520, (6-(3-(2-chloro-5-fluorophenyl)-4-methyl-1H-pyrazol-1-yl)-2-azaspiro [3.3]heptan-2-yl)(2-fluoro-5-hydroxyphenyl) methanone]: the A: degree to which MAGL enzymatic activity returned following washout on MAGL enzyme amounted to 100%.
Regarding `Cc1cc(C2CC3(C2)CN(C(=O)c2ccc(F)cc2OCC(F)(F)F)C3)n(-c2ccccc2C)n1` [Compound 178, [4-fluoro-2-(2,2,2-trifluoroethoxy)phenyl]{6-[3-methyl-1-(o-tolyl)-5-pyrazolyl]-2-aza-2-spiro[3.3]heptyl}methanone], the IC50 at human MAGL (Method 2: Cayman Chemical MAGL enzyme prep, 10 nM enzyme) is below 50 nM; on human MAGL (Method 3: Reaction Biology MAGL enzyme prep, 10 nM enzyme), below 50 nM; on human MAGL (Method 5: Cayman Chemical MAGL enzyme prep, 25 nM enzyme), below 50 nM.
With `O=C(c1cc(O)ccc1F)N1CC2(CC(n3cc(C4CC4)c(-c4ccccc4F)n3)C2)C1` (single isomer, unassigned) [Compound 493, (6-(4-Cyclopropyl-3-(2-fluorophenyl)-1H-pyrazol-1-yl)-2-azaspiro [3.3]heptan-2-yl) (2-fluoro-5-hydroxyphenyl) methanone], the A: degree to which MAGL enzymatic activity returned following washout at MAGL enzyme was determined as 47%.
In the case of `O=C(Oc1ccc([N+](=O)[O-])cc1)N1CCC(C(O)(c2ccc3c(c2)OCO3)c2ccc3c(c2)OCO3)CC1` [JZL-184, reference compound], on MAGL enzyme (immediately following a 30 minute washout, relative to control (no inhibitor before washout), pre-washout 1 μM), the “B: % MAGL activity returning after washout” value is below 1%. Moreover, the “A: degree to which MAGL enzymatic activity returned following washout” value at MAGL enzyme was “complete lack of return of MAGL enzymatic activity”.
With `Cc1cnn(C2CC3(C2)CN(C(=O)c2cc(O)ccc2F)C3)c1-c1cc(F)ccc1Cl` (single isomer, unassigned) [Compound 519, (6-(5-(2-chloro-5-fluorophenyl)-4-methyl-1H-pyrazol-1-yl)-2-azaspiro [3.3]heptan-2-yl) (2-fluoro-5-hydroxyphenyl) methanone], the A: degree to which MAGL enzymatic activity returned following washout on MAGL enzyme was 155%.
